# Conditions: not given
Compound,melting point [°C],boiling point [°C],log10 Henry constant (atm·m³/mol),log10 vapour pressure (mmHg),ready biodegradability,log10 Koc (L/kg),log10 Koa
COc1cc(Cl)c(Cl)cc1OC,83,,,,,,
CCCCCCCCC#CCCCCCCCC(=O)O,48,,,,,,
CC(C(=O)[O-])c1ccccc1 (stereo unspecified),,261,,,,,
CC(Br)C(C)(C)Br (stereo unspecified),7,,,,,,
CCCCC(=O)OC(=O)CCCC,-56.1,227,,,,,
CC(=O)Oc1cccc(C)c1,12,212,,,,,
C=C(C)CCC=C(C)C,-70,143,,,,,
FC(Cl)(Cl)Cl,-111,23.7,-1.01,2.9,,,
CCOC(C)Cl (stereo unspecified),,93.5,,,,,
COc1c(Br)cc(Br)cc1Br,88,298,,,,,
O=C(O)/C=C/CCl,83,,,,,,
N#CC(CCc1ccc(Cl)cc1)(Cn1cncn1)c1ccccc1 (stereo unspecified),125,,,-7.43,,,
CO/N=C(/C(=O)OC)c1ccccc1COc1ccccc1C,99,,,-7.76,,,
CCC(CC)c1ccccn1,,195,,,,,
FC(F)(F)CS,,34.5,,,,,
COc1ccc([C@@H]2CC(=O)c3c(O)cc(O[C@@H]4O[C@H](CO[C@@H]5O[C@@H](C)[C@H](O)[C@@H](O)[C@H]5O)[C@@H](O)[C@H](O)[C@H]4O)cc3O2)cc1O,262,,,,,,
Cc1ccc(/C(=C\CN2CCCC2)c2ccccn2)cc1,60,,,,,,
Nc1cccc(Oc2ccccc2)c1,37,315,,,,,
CCCCCCCCCCCC[N+](C)(C)[O-],132,,,,readily biodegradable,,
Cc1cc(C)oc(=O)c1,51.5,245,,,,,
O=C(O)CCC(=O)c1ccccc1,118,,,,,,
CCC(C)=NNc1ccc([N+](=O)[O-])cc1[N+](=O)[O-],117,,,,,,
NN1CCCCC1,,147,,,,,
C=CCCCCCCCCCCCCCCCC,17.5,,,-4.17,,,
CCN1CCN(c2cc3c(cc2F)c(=O)c(C(=O)O)cn3C2CC2)CC1,220,,,,,,

Compound,melting point [°C],boiling point [°C],log10 Henry constant (atm·m³/mol),log10 vapour pressure (mmHg),ready biodegradability,log10 Koc (L/kg),log10 Koa
Cc1c(O)cc2c(c1C)OC(C)(CCCC(C)CCCC(C)CCCC(C)C)CC2 (stereo unspecified),-3,,,,,,
O=[N+]([O-])c1ccc(F)cc1O,36,,-4.71,-1.64,,,
Cn1cc(-c2ccccc2)c(=O)c(-c2cccc(C(F)(F)F)c2)c1,154,,,-7.01,not readily biodegradable,2.85,
CC(C)CC(C)CC(C)C,,148,,,,,
Cc1nnc(N)s1,224,,,,,,
FC(F)C(F)(F)OCC(F)(F)F,,56.2,,2.33,,,
C/C=C/C=C/C=O,,174,-5.01,,,,
CI,-66.4,42.5,-2.28,2.61,,,2.16
C=C(C)c1ccc(Cl)cc1,,,,,not readily biodegradable,,
CCCCOC(=O)c1ccccc1C(=O)OC1CCCCC1,,,,-5.32,,,
CCCCCCCCCCCCCCCCBr,18,336,,-4.31,readily biodegradable,,
CCCCC(C)O (stereo unspecified),,136,,0.396,not readily biodegradable,,
CCCSCC,-117,119,,1.27,,,
CCCCCCCCCCCCCCCCCC(CC)c1ccccc1 (stereo unspecified),29.3,,,,,,
OCCS,,158,,0.244,,,
O=C(O)c1ccccc1C1c2ccc(O)cc2Oc2cc(O)ccc21,126,,,,,,
CCCC(=O)CCC(C)C,,178,,,,,
O=S(=O)(O)c1cc(S(=O)(=O)O)c2c(/N=N\c3ccc(S(=O)(=O)O)c4ccccc34)c(O)ccc2c1,,,,,not readily biodegradable,,
C/C=C(\C)C=O,,117,,,,,
C=CC[C@@H](C)CC,-142,86.7,,1.87,,,
Clc1ccc(C2(Cn3cncn3)CC(Br)CO2)c(Cl)c1 (stereo unspecified),84,,,-7.52,,,
O=C1OC(=O)[C@H]2[C@@H]1[C@H]1C=C[C@@H]2C1,164,,,,,,
C=COCC(CC)CCCC (stereo unspecified),-100,,,,not readily biodegradable,,
CC/C=C\C/C=C\C/C=C\CCCCCCCC(=O)O,-16.5,,,-6.27,readily biodegradable,,
BrCC(CBr)(CBr)CBr,163,306,,,not readily biodegradable,,

Compound,melting point [°C],boiling point [°C],log10 Henry constant (atm·m³/mol),log10 vapour pressure (mmHg),ready biodegradability,log10 Koc (L/kg),log10 Koa
CCC(Br)=CBr,-49.5,150,,,,,
CC1CC(C)(C)CC1=O (stereo unspecified),-25.6,160,,,,,
CCOO,-100,95,-5.53,,,,
C=CC(O)CCl (stereo unspecified),,146,,,,,
CC(=O)c1c(C)cc(C)cc1C,,241,,,,,
C1=Cc2ccccc2CC1,-8,206,,,,,
SCCCCCCCCS,,270,,,,,
COc1cccc(CO)c1,,252,,,,,
Clc1cc(Cl)c(-c2ccccc2)c(Cl)c1Cl,,,-3.68,,,,
Cc1cc(C)c(S(=O)(=O)Cl)c(C)c1,56,,,,,,
CCOC(=O)C(C(=O)OCC)C(C)C,,215,,,,,
CC(=O)Nc1ccccc1C,110,296,,,,,
O=C1C(O)=C(C2CCCCC2)C(=O)c2ccccc21,136,,,,,,
CCN=C=O,,60,,,,,
OC[C@H]1O[C@H](O)[C@H](O)[C@@H](O)[C@@H]1O,,,,-13.1,,,
Clc1ccc(Cl)c(-c2cccc(Cl)c2Cl)c1,,,-3.85,,,,8.36
CC(CCC(=O)O)n1nnc2ccccc21 (stereo unspecified),86,,,,,,
O=C1CCCCC1C1=CCCCC1 (stereo unspecified),-78,265,,,not readily biodegradable,,
CCC1CCC(=O)O1 (stereo unspecified),-18,216,,,,,
CCc1nn(CCCN2CCN(c3cccc(Cl)c3)CC2)c(=O)n1CCOc1ccccc1,83.5,,,,,,
CS(=O)(=O)Nc1ccc([N+](=O)[O-])cc1Oc1ccccc1,144,,,,,,
CC(C=O)=Cc1ccccc1,,252,,-1.82,,,
CCn1ccnc1,,208,,,,,
CSCC(C)C,,112,,,,,
Cc1ccc(N=C=S)cc1,25.5,237,,,,,

Compound,melting point [°C],boiling point [°C],log10 Henry constant (atm·m³/mol),log10 vapour pressure (mmHg),ready biodegradability,log10 Koc (L/kg),log10 Koa
CCOP(=O)(SC(C)CC)N1CCSC1=O (stereo unspecified),,,-9.76,-5.38,,,
CCN(CC)C(=O)SCc1ccc(Cl)cc1,3.3,,,-4.66,,3.27,
O=C(c1ccccc1)c1cccc(C(F)(F)F)c1,52.5,,,,,,
Clc1ccc(Oc2ccccc2)cc1,,284,,-2.57,,,
Clc1c(Cl)c(Cl)c2c(c1Cl)Oc1c(Cl)c(Cl)c(Cl)c(Cl)c1O2,330,510,,-12.1,,,12.1
c1ccc([C@@H]2CCCNC2)cc1,14.5,257,,,,,
CC(=O)CC1CCCCN1 (stereo unspecified),,195,,,,,
Clc1ccc(Cl)c(-c2cc(Cl)c(Cl)c(Cl)c2)c1,105,,,,,,
O=C(O)c1ccco1,134,231,,,,,
C=CCOc1c(Br)cc(C(C)(C)c2cc(Br)c(OCC=C)c(Br)c2)cc1Br,119,,,,,,
Ic1cn[nH]c1,109,,,,,,
CCOP(=S)(Oc1ccc(Cl)cc1Cl)c1ccccc1 (stereo unspecified),,,,,not readily biodegradable,,
OC[C@H]1O[C@H](O[C@H]2O[C@H](CO)[C@@H](O)[C@H](O)[C@H]2O)[C@H](O)[C@@H](O)[C@@H]1O,203,,,,,,
C1CSCCN1,,175,,,,,
COC(=O)Nc1cccc(OC(=O)Nc2cccc(C)c2)c1,143,,,-11,,3.38,
O=C1CCCCC1,-31,155,-5.05,0.636,readily biodegradable,,
Cc1ccc2nc3sc(=O)sc3nc2c1,170,,,-6.7,,3.36,
CCc1ccc(Cc2ccccc2)cc1,-24,297,,,,,
COc1ccccc1,-37.5,154,,0.549,readily biodegradable,1.54,4.01
Cc1cc2c(cc1S(N)(=O)=O)S(=O)(=O)CCC2,236,,,,,,
Cl.Cl.O=C1c2c(O)ccc(O)c2C(=O)c2c(NCCNCCO)ccc(NCCNCCO)c21,204,,,,,,
CCCCOCC(C)C,,151,,,,,

# Same assay, conditions: fish
Compound,log10 biotransformation half-life (days),log10 BCF
Clc1cc(Cl)c(Oc2cc(Cl)c(Cl)cc2Cl)c(Cl)c1,2.01,
C=C(C)c1ccc(Cl)cc1,1.3,2.84
c1ccc(C2CCCC(C3CCCCC3)C2)cc1 (stereo unspecified),0.45,
C=COCC(CC)CCCC (stereo unspecified),,2.78
BrCC(CBr)(CBr)CBr,0.76,1.94
Clc1ccc(Cl)c(-c2cccc(Cl)c2Cl)c1,2.33,4.84
O=C1CCCCC1C1=CCCCC1 (stereo unspecified),,0.7
CCN(CC)C(=O)SCc1ccc(Cl)cc1,0.66,2.23
Clc1c(Cl)c(Cl)c2c(c1Cl)Oc1c(Cl)c(Cl)c(Cl)c(Cl)c1O2,1.16,3.12

# — the OPERA property sets (Mansouri et al. 2018)
